# Data published in US7910559B2, “Decladinosyl-macrolides with anti-inflammatory activity” (GlaxoSmithKline istrazivacki centar Zagreb d.o.o., priority 2005, dated 2011).
# Like-named read-outs stand apart in the source and are kept apart here.
# Experiments:
# Type in all cases: cell-based
# human TNF-α = assay: Inhibition of TNF-α production by stimulated human peripheral blood leukocytes in vitro (ELISA); conditions: Homo sapiens, Leukocyte, PBL, read-out: Percentage of inhibition of TNF-α production; for inhibition at 10 µM: compound 10 μM; for inhibition at 50 µM: compound 50 μM
# Procedure: (§1) Substances, used in in vitro experiments, were dissolved in dimethyl sulfoxide (DMSO) (Kemika, Croatia) at concentrations of 50 mM and 10 mM and were further diluted to the final concentrations of […] in 1 mL Dulbecco's modified Eagle medium (DMEM) supplemented with 1% heat inactivated fetal bovine serum (FBS), 1% glutamax, 50 U/ml penicillin, 50 μg/ml streptomycin and 2.5 μg/mL Fungizone (amphotericin B). Media and all media supplements were purchased from Gibco, Australia, except FBS that was from Sigma, USA.
# (§2) Peripheral blood leukocytes (PBL) were obtained from venous blood of healthy volunteers by sedimentation on 2% dextran T-500 (Amersham Biosciences, USA) and subsequent centrifugations of leukocyte-rich plasma.
# (§3) Peripheral blood leukocytes (PBL), isolated as described above, were seeded in a 48-well plate at a concentration of 3-5×10^6 cell per well in culture medium consisting of RPMI 1640 medium (Institute of Immunology, Croatia) supplemented with 10% heat-inactivated fetal calf serum (FCS, Biowhittaker, USA), 100 U/ml penicillin (Gibco, Australia), 100 μg/ml streptomycin (Gibco, Australia) and 2 mM L-glutamine (Gibco, Australia), and preincubated with the tested compounds for 2 h at 37° C., in an atmosphere of 5% CO2, and 90% humidity. Afterwards, stimuli (Sigma, USA) were added to a final concentration of 2 μg/mL lipopolysaccharide (LPS), 1 μg/mL phorbol 12-myristate 13-acetate (PMA) or 120 μg/mL zymosan. Samples were incubated overnight under conditions described above. At the end of incubation supernatants were transferred to eppendorf tubes and centrifuged for 10 min at 1500 g. Concentrations of human TNF-α, IL-1β, IL-6 and IL-8 were determined in cell supernatants by sandwich ELISA, using capture and detection antibodies (R&D, USA) according to manufacturer's recommendations.
# (§4) Inhibition (as percentage) was calculated using the following formula: % inhibition=(1−concentration of cytokines in sample/concentration of cytokines in positive control)×100 where “positive control” refers to stimulated samples not treated with substances.
# human IL-1β = assay: Inhibition of IL-1β production by stimulated human peripheral blood leukocytes in vitro (ELISA); conditions: Homo sapiens, Leukocyte, PBL, read-out: Percentage of inhibition of IL-1β production; for inhibition at 10 µM: compound 10 μM; for inhibition at 50 µM: compound 50 μM
# Procedure: as §1, §2, §3, §4
# human IL-6 = assay: Inhibition of IL-6 production by stimulated human peripheral blood leukocytes in vitro (ELISA); conditions: Homo sapiens, Leukocyte, PBL, read-out: Percentage of inhibition of IL-6 production; for inhibition at 10 µM: compound 10 μM; for inhibition at 50 µM: compound 50 μM
# Procedure: as §1, §2, §3, §4
# human IL-8 = assay: Inhibition of IL-8 production by stimulated human peripheral blood leukocytes in vitro (ELISA); conditions: Homo sapiens, Leukocyte, PBL, read-out: Percentage of inhibition of IL-8 production; for inhibition at 10 µM: compound 10 μM; for inhibition at 50 µM: compound 50 μM
# Procedure: as §1, §2, §3, §4
# A549 = conditions: human, 24 h
# Procedure: (§5) Anti-inflammatory activity of compounds, i.e. observed inhibition of cytokine production and inhibition of proliferation in vitro, is not a consequence of their cytotoxicity.
# (§6) Measurement of the succinate dehydrogenase activity in living cells was performed in order to assess the cytotoxicity of compounds of the invention. Cells were cultured for 24 hours in RPMI medium as described above at 37° C., in the presence of the tested compounds at concentrations of 50 μM and 12.5 μM. Afterwards, MTT [3-(4,5-dimethylthiazole-2-yl)-2,5-diphenyl tetrazolium bromide] (Promega, USA) as detection reagent was added and incubated for 0.5-2 hours. The amount of produced MTT-Formazan was determined spectrophotometrically at 490 nm (Mosmann, J. Immunol. Methods, 1983, 65: 55-63).
# (§7) Percentage of viable cells was calculated using the following formula: % viable cells=[…]
# Hep G2 = conditions: human, 24 h
# Procedure: as §5, §6, §7
# THP-1 = conditions: human, 24 h
# Procedure: as §5, §6, §7
Compound,inhibition at 10 µM (human TNF-α; LPS stimulation),inhibition at 50 µM (human TNF-α; LPS stimulation),inhibition at 10 µM (human TNF-α; PMA stimulation),inhibition at 50 µM (human TNF-α; PMA stimulation),inhibition at 10 µM (human TNF-α; zymosan stimulation),inhibition at 50 µM (human TNF-α; zymosan stimulation),inhibition at 10 µM (human IL-1β; LPS stimulation),inhibition at 50 µM (human IL-1β; LPS stimulation),inhibition at 10 µM (human IL-1β; PMA stimulation),inhibition at 50 µM (human IL-1β; PMA stimulation),inhibition at 10 µM (human IL-1β; zymosan stimulation),inhibition at 50 µM (human IL-1β; zymosan stimulation),inhibition at 10 µM (human IL-6; LPS stimulation),inhibition at 50 µM (human IL-6; LPS stimulation),inhibition at 10 µM (human IL-6; PMA stimulation),inhibition at 50 µM (human IL-6; PMA stimulation),inhibition at 10 µM (human IL-6; zymosan stimulation),inhibition at 50 µM (human IL-6; zymosan stimulation),inhibition at 10 µM (human IL-8; LPS stimulation),inhibition at 50 µM (human IL-8; LPS stimulation),further results
"CC[C@H]1OC(=O)[C@H](C)[C@@H](OC(=O)CCN2CCN(CCN(C)C)CC2)[C@H](C)[C@@H](O[C@@H]2O[C@H](C)C[C@H](N(C)C)[C@H]2O)[C@](C)(OC)C[C@@H](C)C(=O)N[C@H](C)[C@@H](O)[C@]1(C)O [Example 19, 6-O-Methyl-3-O-decladinosyl-3-O-{3-[4-(2-Dimethylamino-ethyl)-piperazin-1-yl]-propionyl}-9a-aza-9a-homoerythromycin A]",11%,7%,53%,82%,18%,12%,44%,73%,66%,86%,35%,80%,16%,56%,56%,61%,19%,44%,6%,32%,inhibition at 10 µM (human IL-8; PMA stimulation): 14%; inhibition at 50 µM (human IL-8; PMA stimulation): 0%; inhibition at 10 µM (human IL-8; zymosan stimulation): 9%; inhibition at 50 µM (human IL-8; zymosan stimulation): 26%; Percentage of viable cells after treatment (A549; 12.5 μM): 100%; Percentage of viable cells after treatment (A549; 50 μM): >95%; Percentage of viable cells after treatment (Hep G2; 12.5 μM): 100%; Percentage of viable cells after treatment (Hep G2; 50 μM): 100%; Percentage of viable cells after treatment (THP-1; 12.5 μM): 100%; Percentage of viable cells after treatment (THP-1; 50 μM): 100%
"CC[C@H]1OC(=O)[C@H](C)[C@@H](OC(=O)CCN(C)CCO)[C@H](C)[C@@H](O[C@@H]2O[C@H](C)C[C@H](N(C)C)[C@H]2O)[C@](C)(OC)C[C@@H](C)C(=O)N[C@H](C)[C@@H](O)[C@]1(C)O [Example 23, 6-O-Methyl-3-O-decladinosyl-3-O-{3-[(2-Hydroxy-ethyl)-methyl-amino]-propionyl}-9a-aza-9a-homoerythromycin A]",0%,97%,58%,79%,0%,96%,73%,100%,81%,98%,70%,100%,8%,100%,51%,92%,26%,100%,0%,95%,inhibition at 10 µM (human IL-8; PMA stimulation): 0%; inhibition at 50 µM (human IL-8; PMA stimulation): 90%; inhibition at 10 µM (human IL-8; zymosan stimulation): 0%; inhibition at 50 µM (human IL-8; zymosan stimulation): 98%; Percentage of viable cells after treatment (A549; 12.5 μM): 100%; Percentage of viable cells after treatment (A549; 50 μM): >95%; Percentage of viable cells after treatment (Hep G2; 12.5 μM): 100%; Percentage of viable cells after treatment (Hep G2; 50 μM): 100%; Percentage of viable cells after treatment (THP-1; 12.5 μM): 100%; Percentage of viable cells after treatment (THP-1; 50 μM): 100%
"CC[C@H]1OC(=O)[C@H](C)[C@@H](OC(=O)CCN2CCCN(CCCN3CCCC3)CC2)[C@H](C)[C@@H](O[C@@H]2O[C@H](C)C[C@H](N(C)C)[C@H]2O)[C@](C)(OC)C[C@@H](C)C(=O)N[C@H](C)[C@@H](O)[C@]1(C)O [Example 24, 6-O-Methyl-3-O-decladinosyl-3-O{3-[4-(3-Pyrrolidin-1-yl-propyl)-[1,4]diazepan-1-yl]-propionyl}-9a-aza-9a-homoerythromycin A]",0%,91%,65%,68%,0%,92%,65%,98%,84%,98%,70%,100%,8%,98%,48%,89%,33%,100%,0%,94%,inhibition at 10 µM (human IL-8; PMA stimulation): 3%; inhibition at 50 µM (human IL-8; PMA stimulation): 81%; inhibition at 10 µM (human IL-8; zymosan stimulation): 0%; inhibition at 50 µM (human IL-8; zymosan stimulation): 92%; Percentage of viable cells after treatment (A549; 12.5 μM): >90%; Percentage of viable cells after treatment (A549; 50 μM): >90%; Percentage of viable cells after treatment (Hep G2; 12.5 μM): >95%; Percentage of viable cells after treatment (Hep G2; 50 μM): 100%; Percentage of viable cells after treatment (THP-1; 12.5 μM): 100%; Percentage of viable cells after treatment (THP-1; 50 μM): 100%
